From article PMC8877822, “Interrogation of the Structure–Activity Relationship of a Lipophilic Nitroaromatic Prodrug Series Designed for Cancer Gene Therapy Applications” (Pharmaceuticals, 2022)

Key:
[1] = cited from earlier work
SiHa xenografts = experiment: Tumor excision assay, clonogenic cell kill of SiHa xenografts; format: in vivo, mice; conditions: 18 h after treatment, PR-104 380 µmol/kg i.p., 6-P 1330 µmol/kg i.p.
Protocol: The sensitivity of four cancer cell lines to prodrug 6 was determined under aerobic or anoxic conditions using an anti-proliferative IC50 assay. […] We also evaluated the hypoxic activity of 6-P versus PR-104 in vivo using a SiHa xenograft model (Figure 6B).
When tumors reached treatment size (>400 mm^3), mice were treated with drug by a single intraperitoneal injection of pre-prodrug or vehicle. Mice treated with ionizing radiation were exposed to 10 Gray prior to drug treatment, using a cobalt-60 source from an Eldorado G unit. Animals were euthanized 18 h after drug treatment, and tumors were excised and homogenized using sterile scissors until a fine mince was obtained. Following enzymatic dissociation (2.5 mg/mL pronase, 1 mg/mL collagenase, and 0.2 mg/mL DNAase in αMEM + 10% FBS + 1% P/S, 1 mL per 50 mg), cells were plated at concentrations of 10^2–10^5 cells per 60 mm dish and grown for 10 days before colonies were stained with methylene blue (2 g/L in 50% aqueous alcohol). Colonies containing >50 cells were counted as clonogenic survivors. From these values, plating efficiency (colonies/cells plated), number of clonogens per gram of tumor tissue (plating efficiency × total cells), and log cell kill relative to vehicle treated controls (log clonogens per gram) were calculated. Statistical analysis was undertaken using Holm–Sidak’s one-way ANOVA (Sigmaplot version 11.0).
(A) In vitro anti-proliferative activity of 6 in various cancer cell lines under aerobic and anoxic conditions. IC50 values were determined as the concentration of drug required to inhibit cell growth by 50% of untreated controls following 4 h drug exposure and five days regrowth (mean ±SEM of three or more independent determinations). (B) Clonogenic cell kill of SiHa xenografts 18 h after treatment with hypoxia activated prodrugs PR-104 (380 µmol/kg, i.p.) or 6-P (1330 µmol/kg, i.p.) with or without 10 Gy radiation.

[2] = system: mixed H1299 xenograft containing 28% NfsA_Ec cells and 72% WT cells; experiment: Tumor growth delay assay, mixed H1299 xenograft; format: in vivo, mice; conditions: single i.p. dose: PR-104 388 µmol/kg; 1-P 1330 µmol/kg; 2-P 750 µmol/kg; 6-P 1330 µmol/kg
Protocol: These ratios were broadly similar to those observed in HCT116 cells (Figure 2). A mixed H1299 xenograft model containing a minority percentage (28 ± 3.3%) of NfsA_Ec-expressing cells was used in order to rank the efficacy of the prodrugs in vivo. A model such as this necessitates the presence of a robust bystander effect to achieve a tumor growth delay. Tumor-bearing mice were administered a single intraperitoneal dose of prodrugs 1-P, 2-P, and 6-P at the H1299 tumor-bearing MTD. PR-104 was administered at 388 µmol/kg, the human equivalent dose (HED) in mice that provides a plasma AUCfree of PR-104A (38 µM-h) that equates to the human Q3W MTD of 1100 mg/m^2 [22].
An estimated starting dose was determined from related compounds. Animals were promptly euthanized if body weight loss exceeded 20% or if there were clinical signs of severe morbidity. The MTD was defined as the highest dose, at which all animals survived (death rate < 1/6) with no unacceptable morbidity, and where the next dose increment had caused at least one death. Tumors were inoculated onto the flanks of NIH-III nude mice by subcutaneous injection of 10^7 H1299 cells. Tumor-bearing mice were randomized to treatment groups (n = 5 mice per group) when tumors reached treatment size (300–350 mm^3) and injected with a single intraperitoneal dose of pre-prodrug. Tumor size and body weights were measured regularly. Tumor volume was calculated as π(Lxw^2)/6, where L is the major axis and w is the perpendicular minor axis. Animals were euthanized when the tumor volume had increased fourfold relative to pre-treatment volume (RTV4, survival endpoint) or if body weight loss exceeded 20% of the pre-treatment value. Kaplan–Meier plots were constructed, and median time to endpoint was calculated. Treatment efficacy was assessed by comparing the median survival time with untreated animals using the Log-rank test p-test (Sigmaplot version 11.0).
Figure 5 In vivo efficacy of the three lead pre-prodrug compounds in a mixed H1299 xenograft containing 28% NfsA_Ec cells and 72% WT cells. (A) Tumor growth and (B) survival analysis of mice bearing 250 mm^3 H1299 tumors treated with a single intraperitoneal dose of prodrug on day 0. N = 5 animals per group. Control = PBS, PR-104 = 388 µmol/kg; 1-P = 1330 μmol/kg; 2-P = 750 μmol/kg; and 6-P = 1330 μmol/kg. Survival endpoint was 4× start volume (RTV4).

[3] = LogD7.4 by low-volume octanol/PBS shake-flask method; format: physicochemical; conditions: n-octanol/PBS; octanol-water partition coefficient, shake-flask method at pH 7.4
Protocol: Distribution ratios (LogD7.4) were determined by a low-volume octanol/PBS shake-flask method. Briefly, saturated solutions of octanol and PBS were prepared by mixing equal volumes of n-octanol and PBS (pH 7.4) before being left for three days. The octanol and PBS phases were then carefully separated and left to stand for at least 24 h. Stock solutions (0.1–0.5 mM) of each compound were prepared in octanol saturated with PBS. The stock solutions were diluted with octanol saturated with PBS containing and inter-assay control (acridone) to a final compound concentration of 50 μM. Aliquots (450 μL) were then taken in triplicate, and 450 μL of PBS saturated with octanol was added into amber tubes. The tubes were then sealed in parafilm and rotated for 90 min at 30 rpm to equilibrate. After centrifugation (15,000× g, 5 min, 20°C) the octanol and PBS phases were separated into different tubes and the octanol phase diluted with methanol (1:5 v/v). Both phases were analyzed by HPLC (diode-array detector at 364 ± 10 nm) by injecting 50 μL of the PBS phase and 15 μL of the diluted octanol phase. The results were then expressed as the log ratio of the peak areas obtained from the octanol and PBS phases corrected for dilution and injection volume.

H1299 WT cells = experiment: Anti-proliferative IC50 assay, H1299 WT cells; format: cell-based; conditions: Homo sapiens, NCI-H1299, 4 hour drug exposure, regrowth for five days
Protocol: (§1) The anti-proliferative IC50 was determined as the concentration of prodrug required for 50% inhibition of cell growth, following drug exposure for four hours, then five days regrowth in the absence of drug. Assays were performed under oxic or anoxic conditions as described previously, the latter by using a 5% H2/palladium catalyst scrubbed Bactron anaerobic chamber (Sheldon Manufacturing, Cornelius, OR, USA) to achieve severe anoxia (<10 ppm O2 gas phase) during prodrug exposure.
(§2) Supplementary Table S2. In vitro anti-proliferative activity of the three lead prodrug compounds in H1299 cells expressing E. coli NfsA. IC50 values were determined as the concentration of drug required to inhibit cell growth by 50% of untreated controls following 4 hour drug exposure, with washing and regrowth for five days.
(§3) Compound WT NfsA_Ec Ratio

100% HCT116 AKR1C3 MCLs = experiment: 3D multicellular layer (MCL) assay, 100% HCT116 AKR1C3; format: cell-based, human; conditions: 10 µM prodrug, five hours
Protocol: Similar to the 3D NfsA_Ec screen, increased lipophilicity also tracked with increased LCK in 100% AKR1C3-expressing MCLs (R = 0.78, R^2 = 0.61). […] These three lead compounds were taken forward into in vivo studies.
Multicellular layers (MCLs) were grown, and bystander effect assays were performed as previously reported.
Figure 4 Lipophilic structure–activity relationship for AKR1C3 in three dimensions. (A) Plating efficiency in 100% HCT116 WT and 100% HCT116 AKR1C3 MCLs exposed to 10 µM prodrug for five hours before dissociation and plating to determine clonogenic survival. (B) Correlation between Log cell kill and LogD7.4. R = 0.78, R^2 = 0.61. Log cell kill = Log CS (control)–Log CS (treated), where CS is the number of clonogenic survivors per MCL.

[4] = system: 47 different NTR candidates; experiment: GFP-SOS (DNA damage) response in E. coli SOS-R4 reporter strains expressing nitroreductase candidates; format: cell-based; conditions: 20 µM, six-hour exposure, library of E. coli reporter cells
Description: (§4) We next sought to characterize the NfsA_Ec-mediated conversion of lead prodrug 6 in steady-state kinetics assays using purified His6-tagged NfsA_Ec. […] We therefore conducted a preliminary assessment of whether alternative bacterial NTR enzymes might hold promise for further GDEPT improvements.
Supplementary Figure S2. Identification of alternative nitroreductases able to activate compound 6. Bar graph displaying the fold-induction of GFP in the DNA-damage responsive E. coli reporter strain SOS-R4, following six-hour exposure to 20 µM of compound 6, compared with unchallenged replicates. Individual strains expressed nitroreductase candidates derived from different bacteria, identified by a two-letter suffix as explained in the Materials and Methods. The background SOS response induced by compound 6 in an empty plasmid control strain is indicated by the dashed line. […]
The GFP-SOS response was determined in SOS-R4 [16] by inoculating 200 μl aliquots of LBASG (lysogeny broth supplemented with 100 μgml-1 ampicillin, 50 μgml-1 spectinomycin and 0.2% glucose (w/v)) with selected SOS-R4 nitroreductase-over-expressing strains and incubating overnight at 30 °C, 200 rpm. […] Control and challenge plates were incubated at 30 °C, 200 rpm for 6 h, at which point OD600 and GFP fluorescence (excitation 490 nm/ emission 503 nm) were measured on an Enspire™ 2300 Multilabel Reader (Perkin Elmer, Waltham, MA). […]

[5] = system: H1299 cells expressing E. coli NfsA; experiment: Anti-proliferative IC50 assay, H1299 cells expressing E. coli NfsA; format: cell-based
Protocol: as §1, §2, §3

[6] = molecular target: T1, purified His6-tagged NfsA_Ec (Escherichia coli, UniProt P17117); experiment: Steady-state kinetics of reduction by purified NfsA_Ec; format: biochemical, E. coli; conditions: apparent, measured at 250 µM NADPH
T1 construct: His6; made in house
T1 sequence (P17117 1-240): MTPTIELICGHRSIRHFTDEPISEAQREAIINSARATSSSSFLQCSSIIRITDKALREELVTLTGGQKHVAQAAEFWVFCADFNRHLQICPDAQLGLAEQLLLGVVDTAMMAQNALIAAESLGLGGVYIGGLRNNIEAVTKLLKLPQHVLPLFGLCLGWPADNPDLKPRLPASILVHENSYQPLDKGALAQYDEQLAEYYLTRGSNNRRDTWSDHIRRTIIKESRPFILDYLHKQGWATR
Description: as §4
Supplementary Table S3. Steady-state kinetic parameters* for reduction of compound 6 and PR-104A by NfsA_Ec.
Compound Km (µM) kcat (s-1) kcat/Km (mM-1 s-1)
* Apparent kinetic parameters, measured at 250 µM NADPH
# As previously reported by
NfsA_Ec was purified as a His6-tagged recombinant protein as previously described. Kinetics assays were performed in 60 µl in UVettes (Eppendorf), using the 2 mm light path length. Reactions contained 10 mM Tris-Cl (pH 7.0), 4% DMSO, 0.25 mM NADPH and varying concentrations of PR - 104A or compound 6. Reactions were initiated by addition of 6 µl enzyme and changes in absorbance were measured for 20 s (during linearity). For calculation of Km and kcat, substrate concentrations were varied from ~0.2 x Km to 5 x Km. Molar extinction coefficients of 4,800 or 6,000 M-1 cm-1 were used for compound 6 and PR-104A, respectively. Non-linear regression analysis and Michaelis-Menten curve fitting was performed using Sigmaplot 10.0 (Systat Software Inc.).

SMILES | Human Q3W MTD [1] [mg/m^2] | Log cell kill, in combination with radiotherapy (SiHa xenografts; 10 Gy radiation) | Log cell kill, single agent (SiHa xenografts) | Tumor growth delay (median time to RTV4) compared to untreated controls [2] [%] | logD at 90 min [3] | IC50 (H1299 WT cells) [µM] | Log cell kill (LCK) (100% HCT116 AKR1C3 MCLs) | Activation of the SOS (DNA damage repair) response [4] | IC50 ([5]; Escherichia coli, NCI-H1299, H1299 NfsA_Ec, 4 hour drug exposure, regrowth for five days) [µM] | WT:NfsA_Ec IC50 ratio ([5]; H1299 WT vs H1299 NfsA_Ec) [fold] | kcat [6] [s⁻¹]
CS(=O)(=O)OCCN(CCBr)c1c(C(=O)NCCOP(=O)(O)O)cc([N+](=O)[O-])cc1[N+](=O)[O-] [PR-104, 2-[(2-bromoethyl)-2,4-dinitro-6-[[[2-(phosphonooxy)ethyl]amino]carbonyl]anilino]ethyl methanesulfonate, reference compound] | 1100 | 3.72 | 1.38 | 33 | – | – | – | – | – | – | –
CCS(=O)(=O)c1cc([N+](=O)[O-])c(C(=O)N(C)CCO)cc1N(CCBr)CCBr [Compound 6, 5-(Bis(2-bromoethyl)amino)-N-(2-hydroxyethyl)-N-methyl-4-(ethylsulfonyl)-2-nitrobenzamide] | – | – | – | – | 1.6 | 222 ± 39 | ≤ 0.11 | broadly activated by members of both the NfsA and NfsB nitroreductase families | 0.47 ± 0.1 | 472 | 5.5 ± 0.3
